Data as given in patent US10004732B2 (Novartis AG, priority 2014, dated 2018).
Structures can show the parent of a compound that is named as a salt.

Experiments:
PI 3-kinase alpha = PI 3-kinase alpha (Homo sapiens, UniProt P42336); assay: Kinase Glo Luminescent Kinase Assay (Kglo), assay A; assay type: biochemical; conditions: read-out: Assay A PI3Kα IC50
PI 3-kinase beta = PI 3-kinase beta (Homo sapiens, UniProt P42338); assay: Kinase Glo Luminescent Kinase Assay (Kglo), assay B; assay type: biochemical; conditions: read-out: Assay B PI3Kβ IC50
PI 3-kinase beta, sequence (P42338 whole entry): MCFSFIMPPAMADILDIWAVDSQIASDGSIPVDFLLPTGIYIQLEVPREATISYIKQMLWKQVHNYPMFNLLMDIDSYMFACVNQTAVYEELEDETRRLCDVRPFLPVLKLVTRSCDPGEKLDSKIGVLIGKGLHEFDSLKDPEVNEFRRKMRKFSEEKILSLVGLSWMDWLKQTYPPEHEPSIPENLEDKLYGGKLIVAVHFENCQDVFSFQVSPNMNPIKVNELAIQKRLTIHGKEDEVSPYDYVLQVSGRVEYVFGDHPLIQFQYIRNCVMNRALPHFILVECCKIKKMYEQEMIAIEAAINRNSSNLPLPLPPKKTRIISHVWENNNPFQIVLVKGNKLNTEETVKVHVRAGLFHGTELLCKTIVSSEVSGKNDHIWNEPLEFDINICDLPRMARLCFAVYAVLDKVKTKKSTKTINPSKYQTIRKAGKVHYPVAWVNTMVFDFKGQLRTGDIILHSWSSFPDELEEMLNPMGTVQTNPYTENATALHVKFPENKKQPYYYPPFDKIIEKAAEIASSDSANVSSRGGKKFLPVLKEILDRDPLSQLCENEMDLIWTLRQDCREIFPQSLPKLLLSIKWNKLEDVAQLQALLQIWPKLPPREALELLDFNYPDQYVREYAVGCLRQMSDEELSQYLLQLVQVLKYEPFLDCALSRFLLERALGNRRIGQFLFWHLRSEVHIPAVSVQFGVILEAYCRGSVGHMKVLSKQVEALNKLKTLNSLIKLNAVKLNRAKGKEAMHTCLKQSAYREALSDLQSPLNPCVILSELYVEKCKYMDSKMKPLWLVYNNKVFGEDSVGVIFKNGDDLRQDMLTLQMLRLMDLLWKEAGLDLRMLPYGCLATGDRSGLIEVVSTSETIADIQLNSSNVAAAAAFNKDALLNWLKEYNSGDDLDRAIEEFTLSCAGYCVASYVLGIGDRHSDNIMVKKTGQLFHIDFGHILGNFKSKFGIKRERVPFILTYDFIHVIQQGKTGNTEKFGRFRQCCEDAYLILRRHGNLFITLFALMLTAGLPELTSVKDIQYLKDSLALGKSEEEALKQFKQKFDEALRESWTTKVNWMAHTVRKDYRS
PI 3-kinase beta, sequence (P27986 461-568 partner): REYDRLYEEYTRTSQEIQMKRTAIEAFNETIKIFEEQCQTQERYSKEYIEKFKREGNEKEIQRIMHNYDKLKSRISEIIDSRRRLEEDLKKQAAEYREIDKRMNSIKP

Vps34 = Vps34 (Homo sapiens, UniProt Q8NEB9); assay: Kinase Glo Luminescent Kinase Assay (Kglo), assay C; assay type: biochemical; conditions: read-out: Assay C VPS34 IC50
Vps34, sequence (Q8NEB9 whole entry, species assumed): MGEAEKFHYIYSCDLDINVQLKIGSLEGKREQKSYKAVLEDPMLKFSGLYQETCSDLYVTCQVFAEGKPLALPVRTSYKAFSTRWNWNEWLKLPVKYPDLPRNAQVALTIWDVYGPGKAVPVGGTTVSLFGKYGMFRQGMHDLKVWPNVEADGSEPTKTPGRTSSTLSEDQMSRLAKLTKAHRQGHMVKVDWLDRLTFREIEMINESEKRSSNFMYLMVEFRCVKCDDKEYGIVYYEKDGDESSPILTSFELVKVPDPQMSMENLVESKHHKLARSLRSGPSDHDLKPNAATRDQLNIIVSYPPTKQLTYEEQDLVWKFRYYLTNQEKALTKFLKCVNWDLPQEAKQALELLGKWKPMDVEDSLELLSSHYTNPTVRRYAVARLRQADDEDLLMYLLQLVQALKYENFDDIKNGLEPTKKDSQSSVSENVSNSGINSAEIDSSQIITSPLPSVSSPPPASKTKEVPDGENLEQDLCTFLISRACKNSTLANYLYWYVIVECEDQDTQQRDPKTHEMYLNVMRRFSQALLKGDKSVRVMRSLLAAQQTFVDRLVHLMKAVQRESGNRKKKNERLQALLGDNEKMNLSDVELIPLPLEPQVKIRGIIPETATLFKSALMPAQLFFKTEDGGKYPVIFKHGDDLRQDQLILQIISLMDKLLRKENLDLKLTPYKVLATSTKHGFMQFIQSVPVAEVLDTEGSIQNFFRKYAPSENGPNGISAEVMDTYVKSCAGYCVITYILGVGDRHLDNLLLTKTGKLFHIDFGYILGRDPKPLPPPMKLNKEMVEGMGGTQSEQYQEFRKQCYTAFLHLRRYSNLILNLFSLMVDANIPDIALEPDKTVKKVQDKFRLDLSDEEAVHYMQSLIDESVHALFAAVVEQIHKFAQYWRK

PI 4-kinase beta = PI 4-kinase beta (Homo sapiens, UniProt Q9UBF8); assay: Kinase Glo Luminescent Kinase Assay (Kglo), assay D; assay type: biochemical; conditions: read-out: Assay D PI4Kβ IC50
PI 4-kinase beta, sequence (Q9UBF8 whole entry): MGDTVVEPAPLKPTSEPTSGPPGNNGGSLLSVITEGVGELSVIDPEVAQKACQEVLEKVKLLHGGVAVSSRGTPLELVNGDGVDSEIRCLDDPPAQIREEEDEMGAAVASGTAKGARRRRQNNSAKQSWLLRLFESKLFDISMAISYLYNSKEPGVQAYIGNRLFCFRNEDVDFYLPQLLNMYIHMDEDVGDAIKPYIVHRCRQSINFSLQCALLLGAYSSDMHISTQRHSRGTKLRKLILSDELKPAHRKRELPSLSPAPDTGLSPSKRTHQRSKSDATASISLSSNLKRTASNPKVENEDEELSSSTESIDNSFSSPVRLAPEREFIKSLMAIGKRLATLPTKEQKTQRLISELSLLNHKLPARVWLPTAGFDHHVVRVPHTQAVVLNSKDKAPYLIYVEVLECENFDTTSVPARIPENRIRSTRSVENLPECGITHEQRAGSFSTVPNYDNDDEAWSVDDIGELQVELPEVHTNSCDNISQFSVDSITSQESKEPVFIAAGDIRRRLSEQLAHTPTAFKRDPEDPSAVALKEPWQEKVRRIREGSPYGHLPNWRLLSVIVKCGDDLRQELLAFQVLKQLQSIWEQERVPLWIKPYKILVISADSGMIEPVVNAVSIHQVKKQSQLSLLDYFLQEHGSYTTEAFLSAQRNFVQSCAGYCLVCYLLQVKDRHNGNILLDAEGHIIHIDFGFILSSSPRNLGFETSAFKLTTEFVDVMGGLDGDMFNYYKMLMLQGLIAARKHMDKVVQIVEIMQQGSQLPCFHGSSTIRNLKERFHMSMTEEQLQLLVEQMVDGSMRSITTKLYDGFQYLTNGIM

PI 3-kinase gamma = PI 3-kinase gamma (Homo sapiens, UniProt P48736); assay: TR-FRET Adapta assay, assay E; assay type: biochemical; conditions: read-out: Assay E PI3Kγ IC50
mTOR = mTOR (Homo sapiens, UniProt P42345); assay: Lanthascreen kinase binding assay, assay G; conditions: read-out: Assay G mTOR IC50
Procedure: Lanthascreen™ Kinase Binding Assay for mTOR (G)
Binding of an inhibitor to the kinase competes for binding with the tracer, resulting in a loss of FRET.
50 nL of compound dilutions were dispensed onto white 384-well small volume polystyrene plate.

PI 3-kinase delta = PI 3-kinase delta (Homo sapiens, UniProt O00329); assay: TR-FRET Adapta assay, assay F; conditions: read-out: Assay F PI3Kδ IC50
PI 3-kinase delta, sequence (O00329 whole entry): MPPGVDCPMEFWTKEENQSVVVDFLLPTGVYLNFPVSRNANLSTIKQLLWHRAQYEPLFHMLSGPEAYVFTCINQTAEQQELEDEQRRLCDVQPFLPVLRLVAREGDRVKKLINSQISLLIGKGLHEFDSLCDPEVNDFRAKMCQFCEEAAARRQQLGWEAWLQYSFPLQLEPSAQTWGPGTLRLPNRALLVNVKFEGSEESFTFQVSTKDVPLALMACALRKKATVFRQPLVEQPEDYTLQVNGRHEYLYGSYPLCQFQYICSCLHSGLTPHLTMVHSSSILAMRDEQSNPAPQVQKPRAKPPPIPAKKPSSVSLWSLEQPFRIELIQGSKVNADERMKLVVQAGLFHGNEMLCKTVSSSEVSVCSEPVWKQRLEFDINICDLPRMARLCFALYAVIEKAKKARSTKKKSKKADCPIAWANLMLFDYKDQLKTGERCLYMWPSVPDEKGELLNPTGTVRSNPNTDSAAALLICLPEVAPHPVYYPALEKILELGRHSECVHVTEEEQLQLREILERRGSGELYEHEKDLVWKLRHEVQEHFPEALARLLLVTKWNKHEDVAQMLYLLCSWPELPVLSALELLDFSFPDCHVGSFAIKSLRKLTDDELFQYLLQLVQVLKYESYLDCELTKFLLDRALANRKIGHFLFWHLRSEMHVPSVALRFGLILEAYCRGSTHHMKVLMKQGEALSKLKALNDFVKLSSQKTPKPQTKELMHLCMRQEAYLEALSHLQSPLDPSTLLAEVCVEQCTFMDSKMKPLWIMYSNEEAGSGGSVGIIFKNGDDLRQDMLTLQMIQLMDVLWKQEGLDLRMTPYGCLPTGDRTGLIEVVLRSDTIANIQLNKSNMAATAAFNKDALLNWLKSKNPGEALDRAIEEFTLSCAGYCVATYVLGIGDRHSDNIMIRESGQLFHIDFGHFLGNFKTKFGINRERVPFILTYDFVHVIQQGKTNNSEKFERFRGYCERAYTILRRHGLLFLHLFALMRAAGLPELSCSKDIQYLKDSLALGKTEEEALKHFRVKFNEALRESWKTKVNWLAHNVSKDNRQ
PI 3-kinase delta, sequence (P27986 461-568 partner): as the sequence (P27986 461-568 partner) above

[1] = Microsomal clearance assay (M)
Procedure: The experiments were performed in 96-well glass plates at 37° C. on an automated Tecan EVO platform. Test compounds at a concentration of 10 mM in pure DMSO were diluted 1:1000 in water to 10 μM. […] Reactions were initiated by the addition of 150 μL of a cofactor solution containing 2 mM NADPH.

[2] = intrinsic clearance in rat liver microsomes
[3] = rat liver microsomes, intrinsic clearance

PI 3-kinase alpha, sequence (P42336 whole entry): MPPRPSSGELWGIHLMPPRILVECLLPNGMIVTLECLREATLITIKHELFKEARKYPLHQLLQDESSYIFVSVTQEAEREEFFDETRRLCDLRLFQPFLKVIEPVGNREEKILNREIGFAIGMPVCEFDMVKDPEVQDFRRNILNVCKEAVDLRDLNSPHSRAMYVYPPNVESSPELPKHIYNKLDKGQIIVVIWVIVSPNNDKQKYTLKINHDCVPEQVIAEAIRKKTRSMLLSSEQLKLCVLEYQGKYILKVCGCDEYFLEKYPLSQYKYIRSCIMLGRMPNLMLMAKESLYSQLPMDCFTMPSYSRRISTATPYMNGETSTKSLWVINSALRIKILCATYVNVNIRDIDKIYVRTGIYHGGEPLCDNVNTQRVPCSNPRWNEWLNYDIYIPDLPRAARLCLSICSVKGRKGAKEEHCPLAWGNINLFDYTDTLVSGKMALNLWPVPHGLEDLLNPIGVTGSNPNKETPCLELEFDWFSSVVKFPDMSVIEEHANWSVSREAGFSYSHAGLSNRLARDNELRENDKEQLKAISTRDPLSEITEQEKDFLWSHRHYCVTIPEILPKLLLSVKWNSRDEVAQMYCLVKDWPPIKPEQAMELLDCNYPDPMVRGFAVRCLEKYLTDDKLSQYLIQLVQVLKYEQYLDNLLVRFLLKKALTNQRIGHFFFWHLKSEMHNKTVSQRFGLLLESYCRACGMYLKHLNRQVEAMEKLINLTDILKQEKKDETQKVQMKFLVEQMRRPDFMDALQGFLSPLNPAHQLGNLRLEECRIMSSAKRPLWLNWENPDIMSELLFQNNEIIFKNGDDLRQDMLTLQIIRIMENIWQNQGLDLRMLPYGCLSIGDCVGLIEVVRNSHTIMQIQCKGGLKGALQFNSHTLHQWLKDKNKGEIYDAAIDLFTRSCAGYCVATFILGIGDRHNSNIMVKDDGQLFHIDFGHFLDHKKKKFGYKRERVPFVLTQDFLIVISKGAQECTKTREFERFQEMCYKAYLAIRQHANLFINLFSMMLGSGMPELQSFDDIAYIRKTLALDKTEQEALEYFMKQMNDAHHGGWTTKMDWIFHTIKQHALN

IC50 (PI 3-kinase alpha) [nM] | IC50 (PI 3-kinase beta) [nM] | IC50 (Vps34) [nM] | IC50 (PI 4-kinase beta) [nM] | IC50 (PI 3-kinase gamma) [nM] | IC50 (mTOR) [nM] | IC50 (PI 3-kinase delta) [nM] | Assay M RLM CI(int) [1, 2] [µL/min/mg] | Assay M RLM CI(int) [1, 3] [µL/min/mg] | SMILES
1500 | 5300 | > 10000 | 3000 | 180 | > 10000 | 3200 | 641 | – | Cc1ccc(S(=O)(=O)N2CCC(F)CC2)cc1-c1cnc(N)c(-n2cncn2)n1 [Example 127.34]
740 | > 10000 | > 10000 | > 10000 | 170 | > 10000 | 8700 | 560 | – | Cc1ccc(S(=O)(=O)N2CCC(F)(F)CC2)cc1-c1cnc(N)c(-n2cncn2)n1 [Example 127.33]
– | – | 650 | 780 | – | – | – | 147 | – | Cc1ncc(-c2nc(-c3cc(S(=O)(=O)NCC(F)(F)F)ccc3C)cnc2N)s1 [Example 45.5, 3-(5-Amino-6-(2-methylthiazol-5-yl)pyrazin-2-yl)-4-methyl-N-(2,2,2-trifluoroethyl)benzenesulfonamide]
1600 | 4000 | > 9100 | > 9100 | 320 | > 9100 | 2300 | 13 | – | Cc1cc(-c2nc(-c3cc(S(=O)(=O)N4CCC(N)CC4)ccc3C)cnc2N)ccn1 [Example 129.41, 5-(5-(4-aminopiperidin-1-ylsulfonyl)-2-methylphenyl)-3-(2-methylpyridin-4-yl)pyrazin-2-amine]
40 | 370 | 6000 | 5800 | 18 | – | 50 | 194 | – | Cc1ncc(-c2nc(-c3cc(S(=O)(=O)NCC4CCOCC4)ccc3C)cnc2N)s1 [Example 45.2, 3-(5-Amino-6-(2-methylthiazol-5-yl)pyrazin-2-yl)-4-methyl-N-((tetrahydro-2H-pyran-4-yl)methyl)benzenesulfonamide]
1500 | > 9100 | > 9100 | > 9100 | 280 | > 9100 | 7500 | – | – | Cc1cc(-c2nc(-c3cc(S(=O)(=O)NC4CCN(C)CC4)ccc3C)cnc2N)ccn1 [Example 129.22, 3-(5-amino-6-(2-methylpyridin-4-yl)pyrazin-2-yl)-4-methyl-N-(1-methylpiperidin-4-yl)benzenesulfonamide]
550 | > 9100 | > 9100 | 6200 | 27 | > 9100 | 940 | – | – | Cc1cc(-c2nc(-c3cc(S(=O)(=O)NC4CCOCC4)ccc3C)cnc2N)ccn1 [Example 129.10, 3-(5-amino-6-(2-methylpyridin-4-yl)pyrazin-2-yl)-4-methyl-N-(tetrahydro-2H-pyran-4-yl)benzenesulfonamide]
3000 | 5700 | > 9100 | > 9100 | 1000 | > 9100 | 2300 | – | – | Cc1cc(-c2nc(-c3cc(S(=O)(=O)N[C@H]4CC[C@H](N)CC4)ccc3C)cnc2N)ccn1 [Example 129.43, 3-(5-amino-6-(2-methylpyridin-4-yl)pyrazin-2-yl)-N-((1r,4r)-4-aminocyclohexyl)-4-methylbenzenesulfonamide]
100 | 460 | > 10000 | 4000 | 13 | 7000 | 320 | – | – | Cc1ccc(S(=O)(=O)NCC2(CO)CCC2)cc1-c1cnc(N)c(-n2cncn2)n1 [Example 127.49]
540 | 3500 | > 10000 | 6700 | 100 | > 10000 | 2800 | – | – | Cc1ccc(S(=O)(=O)NCC2(CO)CC2)cc1-c1cnc(N)c(-n2cncn2)n1 [Example 127.38]
1900 | 5300 | > 10000 | 7700 | 130 | > 10000 | 1600 | – | – | Cc1ccc(S(=O)(=O)NC2CCOC2=O)cc1-c1cnc(N)c(-n2cncn2)n1 (stereo not drawn) [Example 127.30]
670 | 6400 | > 9100 | > 9100 | 1100 | > 9100 | 4000 | – | – | Cc1cc(-c2nc(-c3cc(S(=O)(=O)N4CC[C@@H](N)C4)ccc3C)cnc2N)ccn1 [Example 129.40, (R)-5-(5-(3-aminopyrrolidin-1-ylsulfonyl)-2-methylphenyl)-3-(2-methylpyridin-4-yl)pyrazin-2-amine]
6000 | > 10000 | > 10000 | > 10000 | 1000 | > 10000 | > 10000 | – | – | Cc1ccc(S(=O)(=O)N2CC(F)(F)C(F)(F)C2)cc1-c1cnc(N)c(-n2cncn2)n1 [Example 127.8]
170 | 1500 | > 9100 | 4710 | 13 | 2880 | 110 | – | – | Cc1nc(-c2nc(-c3cc(S(=O)(=O)NCCC(C)(C)O)ccc3C)cnc2N)cs1 [Example 119.30]

More lines, now with the values behind:

SMILES | IC50 (PI 3-kinase alpha) [nM] | IC50 (PI 3-kinase beta) [nM] | IC50 (Vps34) [nM] | IC50 (PI 4-kinase beta) [nM] | IC50 (PI 3-kinase gamma) [nM] | IC50 (mTOR) [nM] | IC50 (PI 3-kinase delta) [nM] | Assay M RLM CI(int) [1, 2] [µL/min/mg] | Assay M RLM CI(int) [1, 3] [µL/min/mg]
Cc1cn(-c2nc(-c3cc(S(=O)(=O)NCC(C)(C)O)ccc3C)cnc2N)c(C)n1 [Example 50, 3-(5-Amino-6-(2,4-dimethyl-1H-imidazol-1-yl)pyrazin-2-yl)-N-(2-hydroxy-2-methylpropyl)-4-methylbenzenesulfonamide] | 2500 | 2800 | > 10000 | > 10000 | 850 | > 10000 | > 10000 | 28 | –
COCCNS(=O)(=O)c1cc(-c2cnc(N)c(C(=O)c3cccnc3)n2)ccc1Cl [(vi), reference compound] | – | – | – | – | – | – | – | – | 630
Cc1nc(N)ncc1-c1ccc(Cl)c(S(=O)(=O)NCCO)c1 [(xii), reference compound] | – | – | – | – | – | – | – | – | 9
Cc1cc(-c2nc(-c3cc(S(=O)(=O)NC[C@@H](C)O)ccc3C)cnc2N)ccn1 [Example 129, (R)-3-(5-Amino-6-(2-methylpyridin-4-yl)pyrazin-2-yl)-N-(2-hydroxypropyl)-4-methyl benzene sulfonamide trifluoroacetic acid salt] | 130 | 7300 | > 9100 | > 9100 | 24 | > 9100 | 550 | 28 | –
Cc1ncc(-c2nc(-c3cc(S(=O)(=O)NCC4(C)COC4)ccc3C)cnc2N)s1 [Example 120, 3-(5-Amino-6-(2-methylthiazol-5-yl)pyrazin-2-yl)-4-methyl-N-((3-methyloxetan-3-yl)methyl)benzenesulfonamide] | 20 | 1000 | 1300 | 2500 | 4 | – | 60 | 95 | –
Nc1ncc(-c2ccc(Cl)c(S(=O)(=O)N[C@H]3CC[C@H](O)CC3)c2)nc1C(=O)c1cccnc1 [(v), reference compound] | – | – | – | – | – | – | – | – | 173
Cc1ncc(-c2nc(-c3cc(S(=O)(=O)N[C@@H]4CCOC4)ccc3C)cnc2N)s1 [Example 45.7b, (R)-3-(5-Amino-6-(2-methylthiazol-5-yl)pyrazin-2-yl)-4-methyl-N-(tetrahydrofuran-3-yl)benzenesulfonamide or (5)-3-(5-Amino-6-(2-methylthiazol-5-yl)pyrazin-2-yl)-4-methyl-N-(tetrahydrofuran-3-yl)benzenesulfonamide] | – | – | – | – | – | – | – | 135 | –
COCCNS(=O)(=O)c1cccc(-c2cnc(N)c(C(=O)c3cccnc3)n2)c1 [(iv), reference compound] | – | – | – | – | – | – | – | – | 465
Cc1ncc(-c2nc(-c3cc(S(=O)(=O)N[C@@H]4CCOC4)ccc3C)cnc2N)s1 [Example 45.7a, (R)-3-(5-Amino-6-(2-methylthiazol-5-yl)pyrazin-2-yl)-4-methyl-N-(tetrahydrofuran-3-yl)benzenesulfonamide or (5)-3-(5-Amino-6-(2-methylthiazol-5-yl)pyrazin-2-yl)-4-methyl-N-(tetrahydrofuran-3-yl)benzenesulfonamide] | – | – | – | – | – | – | – | 151 | –
COCCNS(=O)(=O)c1cc(-c2cnc(N)c(C(=O)c3cccnc3)n2)c(F)cc1F [(vii), reference compound] | – | – | – | – | – | – | – | – | 283
CN1CCN(S(=O)(=O)c2cccc(-c3cnc(N)c(C(=O)c4cccnc4)c3)c2)CC1 [(ii), reference compound] | – | – | – | – | – | – | – | – | 233
Cc1ccc(S(=O)(=O)N2CCOCC2)cc1-c1cnc(N)c(C(=O)c2cccnc2)c1 [(i), reference compound] | – | – | – | – | – | – | – | – | 47
CNC(=O)c1nc(-c2ccc(Cl)c(S(=O)(=O)Nc3cccc(F)c3C)c2)cnc1N [(xi), reference compound] | – | – | – | – | – | – | – | – | 271
CC(C)(C)c1ccc(C(=O)c2cc(-c3cccc(S(=O)(=O)NC4CC4)c3)cnc2N)cc1 [(iii), reference compound] | – | – | – | – | – | – | – | – | 219
Cc1ccc(S(=O)(=O)N2CCOCC2)cc1-c1cnc(N)c(C(=O)c2cccnc2)n1 [(ix), reference compound] | – | – | – | – | – | – | – | – | 267
